Data set [1] has as its system mouse embryonic cells (MEC). Put plainly: EPR-based analysis of integration and reduction of nitroxide Gramicidin S-peptidyl conjugates in MECs. It counts as cell-based. The following applies: 10 μM, whole cells, cytosol fractions. The procedure: Electron paramagnetic resonance (“EPR”) spectroscopy was used to monitor the cellular delivery of compounds 5a and 5b shown in FIG. 3 in mouse embryonic cells (“MEC”).
The following conditions were used during the EPR-based analysis of the integration and reduction of nitroxide Gramicidin S-peptidyl conjugates in MECs. The MECs at a concentration of 10 million MECs per mL were incubated with 10 μM of 4-AT and compound 5a, respectively. Recovered nitroxide radicals in whole cells, mitochondria, and cytosol fractions were resuspended in phosphate buffer saline (“PBS”) in the presence and absence, respectively, of 2 μM K3Fe(CN)6.

Data set [2] has as its system MECs. As to the kind of experiment: Intracellular superoxide generation (DHE flow cytometry) in ActD-treated MECs. It counts as cell-based, mouse. As to conditions: 10 μM pretreatment; ActD 100 ng/mL. As to the method: Determination of intracellular superoxide radicals. Oxidation-dependent fluorogenic dye, dihydroethidium (“DHE”, Molecular Probes) was used to evaluate intracellular production of superoxide radicals. DHE is cell permeable and, in the presence of superoxide, is oxidized to fluorescent ethidium which intercalates into DNA. The fluorescence of ethidium was measured using a FACscan (Becton-Dickinson, Rutherford, N.J.) flow cytometer, equipped with a 488-nm argon ion laser and supplied with the Cell Quest software. Mean fluorescence intensity from 10,000 cells were acquired using a 585-nm bandpass filter (FL-2 channel).

For data set [3], the system named is mitochondria of 32D c 13 hemopoietic cells. Put plainly: Mass spectrometry of compounds in mitochondria isolated from 32D cl 3 cells. It counts as cell-based, murine. The following applies: 100 μM; two hours at 37° C. The procedure: An unconjugated and conjugated NOS antagonist, (AMT, 100 μM) and an unconjugated and conjugated nitroxide derivative (4-amino-TEMPO, 100 μM) were incubated for two hours at 37° C. with 32D c 13 hemopoietic cells.
Following incubation, the cells were lysed and the mitochondria isolated for a mass spectrometry analysis where compounds isolated from mitochondria were identified as Na+ adducts. […] Thus, the targeting peptides successfully direct a NOS antagonist and a nitroxide to the mitochondria.

Data set [4] deals with irradiated uroepithelial cells. Put plainly: NO and peroxynitrite production in irradiated uroepithelial cells. As to conditions: 4-amino-TEMPO 100 μM, AMT 10 μM; capsaicin evoked; 24 hours after irradiation. It counts as cell-based. As to the method:
Further physiological studies were conducted to determine the effects of peptide-targeted AMT and 4-amino-TEMPO on NO and peroxynitrite production in irradiated uroepithelial cells. The cells were cultured in an 8-well slide chamber for 3 days and then microsensor measurements were taken 24 hours after irradiation.
In cells treated with high-dose conjugated 4-amin-TEMPO (100 μM), peroxynitrite production was decreased by approximately 4-fold.

The test system of data set [5] is MECs. Put plainly: ActD-induced apoptosis in MECs (annexin V, caspase-3, DNA fragmentation). As to conditions: for DNA fragmentation / caspase-3 activation / number of annexin V-positive cells (PS externalization): 10 μM, ActD 100 ng/mL.
Description: The ability of 5a, 5b, and 4-AT to protect cells against apoptosis triggered by actinomycin D (“ActD”) was also tested. MECs were pretreated with 10 μM 4-AT, 5a, or 5b then incubated with ActD at a concentration of 100 ng/mL.
Externalization of PS was analyzed by flow cytometry using an annexin V kit. Cells were harvested by trypsinization at the end of incubation and then stained with annexin V-FITC and propidium iodide (“PS”). Ten thousand cell events were collected on a FACScan flow cytometer. Annexin V-positive and PI-negative cells were considered apoptotic.
Activation of capase-3, a cysteine protease only activated in the execution phase of apoptosis, was determined using an EnzChek capsase-3 assay kit.
These DNA fragments are eluted, stained with propidium iodide and analyzed using flow cytometry. A cell population with decreased DNA content was considered a fraction of apoptotic cells.
In data set [6] the test system is 32D cl 3 mouse hematopoietic progenitor cell line. As to the kind of experiment: Irradiation survival curves of 32D cl 3 cells with JP4-039. The class given is cell-based. The following applies: 10 μM. The procedure:
Irradiation survival curves were performed on cells from the 32D cl 3 mouse hematopoietic progenitor cell line, incubated in 10 μM JP4-039 for 1 hour before irradiation, or plated in methylcellulose containing 10 μM […] after irradiation. Cells were irradiated from 0 to 8 Gy, plated in 0.8% methylcellulose containing media, and incubated for 7 days at 37° C. Colonies of greater than 50 cells were counted and data analyzed by linear quadratic and single-hit, multi-target models.

The test system of data set [7] is KM101 human marrow stromal cells. Put plainly: Irradiation survival of KM101 cells with JP4-039. As to conditions: 10 μM. It counts as cell-based. As to the method: KM101 cells were incubated in media alone or in JP4-039 (10 μM) for one hour before irradiation or 24 hours after irradiation. The cells were irradiated to doses ranging from 0 to 6 Gy and plated in 4 well plates. Seven days later the cells were stained with crystal violet and colonies of greater than 50 cells counted. Cells incubated in JP4-039 either before or after irradiation were more radioresistant as shown by an increased shoulder of n=2.3±0.2 or 2.2±0.2, respectively compared to n of 1.1±0.1 for the KM101 cells (p=0.0309 or 0.0386, respectively).

Data set [8] has as its system mice exposed to total body irradiation. As to the kind of experiment: Survival of mice after total body irradiation. The class given is in vivo, mouse. As to the method: In FIG. 17A, mice received intraperitoneal injection of 10 mg per kilogram of each of the chemicals indicated in FIG. 5, then 24 hours later received 9.75 Gy total body irradiation according to published methods. Mice were followed for survival according to IACUC regulations. […] (P=0.0008). In FIG. 17B, mice received intraperitoneal injection of JP4-039 either 10 minutes before (square symbols) or 4 hours after (triangle symbols) irradiation with 9.75 Gy.
Groups of 15 mice received intraperitoneal injection of 10 mg. per kilogram of each indicated GS-nitroxide compound or carrier (Cremphora plus alcohol at 1 to 1 ratio, then diluted 1 to 10 in distilled water). Mice received 10 mg per kilogram intra-peritoneal injection 24 hours prior to total body irradiation. Control mice received radiation alone. […] (P=0.0005)

Data set [9] concerns MEF cells prepared from Ercc1−/− mouse embryos. As to the kind of experiment: Toxicity of JP4-039 in Ercc1−/− MEF cultures. It counts as cell-based. The following applies: 48 hours. The procedure: (§1) To assess the therapeutic potential of JP4-039, tests for safety and protective activity were performed. FIGS. 35 and 36 show the results of tests to evaluate whether varying concentrations of JP4-039 produce toxic effects after 48 hours in cultures of MEF cells prepared from Ercc1^−/− or wild-type mouse embryos, respectively.

Data set [10] concerns MEF cells prepared from wild-type mouse embryos. Put plainly: Toxicity of JP4-039 in wild-type MEF cultures. The class given is cell-based. As to conditions: up to 10 μM, 48 hours. As to the method: as §1
Data set [11] has as its system p16 in primary MEFs from Ercc1−/− mouse embryos. Put plainly: p16 immunofluorescence in Ercc1−/− MEFs under 20% oxygen. It counts as cell-based. The following applies: 1 uM, 48 hrs. As to the method: To test the protective activity of JP4-039, cultures of primary MEFs were prepared from Ercc1^−/− mouse embryos and grown under 20% oxygen (ambient air), which creates oxidative stress in these cells that are hypersensitive to reactive oxygen species. The cells were then either treated with a concentration of 1 uM XJB-5-131, JP4-039, JED-E71-37 or JED-E71-58, or left untreated (media), and then after 48 hrs the level of p16, a marker of irreversible cellular senescence, was measured by immunofluorescence staining.

For data set [12], the system named is γ-H2AX in primary MEF cells from Ercc1−/− mice. As to the kind of experiment: γ-H2AX immunostaining in Ercc1−/− MEFs under oxidative stress. The following applies: 1 μM, 48 hours. It counts as cell-based, mouse. The procedure: Next, the abilities of these two agents, as well as XJB-5-131 and JP4-039, each at a concentration of 1 μM, were tested for their ability to prevent oxidation-induced DNA double-strand breaks in cell cultures prepared, and oxidatively stressed, as in the preceding paragraph. Treated as well as untreated cells were, after 48 hours of treatment, immunostained for γ-H2AX, a marker of DNA double-strand breaks as well as cellular senescence.

Data set [13] relates to mitochondrial membrane. Put plainly: Quantitative mass spectrometry of AMT peptide conjugates permeating the mitochondrial membrane. As to conditions: relative quantification of conjugate at the target site. The class given is cell-based. As to the method:
Quantitative mass spectrometry studies were used to compare the effectiveness of several AMT peptide conjugates in permeating the mitochondrial membrane, specifically XJB-5-234, XJB-5-133, XJB-5-241, and XJB-5-127. The fmole/10 μM mitochondrial protein ratio provides a relative quantification of conjugate concentration at the target site.

“Also recorded” adds a separate entry of the source. Where a SMILES comes first, the peptide text is derived from it. [ ]: non-standard residue; d: D form. The star is where a group is joined. ξ: configuration not given here. NH(TEMPO-4-yl) = CC1(C)CC(N*)CC(C)(C)N1[O]; Orn = NCCC[C@H](N)C(=O)O; Cbz = O=C(OCc1ccccc1)*; Boc = CC(C)(C)OC(=O)*; ξOrn = NCCCC(N)C(=O)O; X1 = CC1CCN=C(N*)S1

Regarding `CC1(C)CC(N)CC(C)(C)N1[O]` [4-amino-TEMPO, reference compound], in data set [1], the “EPR signals of nitroxide radicals; integration into cells and mitochondria” value is “did not effectively permeate cells or the mitochondria”. In addition, in [2], the intracellular superoxide generation entry was “had no effect”. In addition, the “permeation of the mitochondrial membrane (MS, Na+ adducts)” value in data set [3] was “only permeate the mitochondrial membrane with the assistance of the attached GS-derived targeting sequence”. Also, the peroxynitrite formation entry in [4] is recorded as “comparable amount of peroxynitrite”. Also, the “protection against ActD-induced apoptosis” value in data set [5] (10 μM / low concentrations) was “afforded no protection”.

For `CC(C)C[C@@H](/C=C/[C@H](Cc1ccccc1)C(=O)N1CCC[C@H]1C(=O)N[C@H](C(=O)N[C@@H](CCCNC(=O)OCc1ccccc1)C(=O)NC1CC(C)(C)N([O])C(C)(C)C1)C(C)C)NC(=O)OC(C)(C)C` [5a], in [2], the intracellular superoxide generation result is given as “completely inhibited”. Further, in [5], the DNA fragmentation entry is listed as “prevented DNA fragmentation”, the caspase-3 activation result is “prevented caspase-3 activation” and the “number of annexin V-positive cells (PS externalization)” value is given as “reduced the number of annexin V•positive cells”.

Take `CC(C)C[C@H](NC(=O)OC(C)(C)C)C(=O)N[C@H](Cc1ccccc1)C(=O)N1CCC[C@H]1C(=O)N[C@H](C(=O)N[C@@H](CCCNC(=O)OCc1ccccc1)C(=O)NC1CC(C)(C)N([O])C(C)(C)C1)C(C)C` [5b] (Boc-L[dF]PV[Orn](Cbz)-{NH(TEMPO-4-yl)}): the intracellular superoxide generation result in [2] was “completely inhibited”. Further, in data set [5], the DNA fragmentation result was “prevented DNA fragmentation”, the caspase-3 activation entry was “prevented caspase-3 activation” and the “number of annexin V-positive cells (PS externalization)” value is on record as “reduced the number of annexin V•positive cells”. Also, the “protection or cytotoxicity at higher concentration” value in data set [5] (concentrations in excess of 10 μM) is recorded as “either less protective or exhibited cytotoxicity”.

As to `CC1CCN=C(N)S1` (stereo not drawn) [AMT, 2-amino-6-methyl-thiazine], the “permeation of the mitochondrial membrane (MS, Na+ adducts)” value in data set [3] is reported as “do not enter the mitochondria membrane in substantial quantities”. In addition, the peroxynitrite formation entry in data set [4] is “comparable amount of peroxynitrite”.

In the case of `CC(C)C[C@@H](/C=C/CC(=O)NC1CC(C)(C)N([O])C(C)(C)C1)NC(=O)OC(C)(C)C` [JP4-039, TEMPO-4-yl-(S,E)-5-(tert-butoxycarbonylamino)-7-methyloct-3-enamide], the “hematopoietic cell radiation mitigation” value in [6] is recorded as “effective hematopoietic cell radiation mitigator”. Moreover, the “mitigation of irradiation damage” value in data set [7] is reported as “effective mitigator”. In [7] (before or after irradiation), the “change in the Do” value is “no significant change”. Besides, the survival of mice entry is recorded as “increases survival” in data set [8] (9.5 Gy total body irradiation, 10 mg per kilogram intraperitoneal 24 hours prior) and “significant increase in survival; also recorded: increases survival” in data set [8] (9.75 Gy total body irradiation, 10 mg per kilogram intraperitoneal). In addition, the “cellular proliferation relative to untreated control cells” value in data set [9] (Ercc1−/− or wild-type MEF) is recorded as “enhanced”. The toxicity result in [9] (up to 10 μM) and in data set [10] was “no signs of toxicity were observed” each time. In data set [11], the “level of p16” value is “much lower”. In addition, in data set [12], the “γ-H2AX (oxidation-induced DNA double-strand breaks)” value is “also effective”.

`CC(C)C[C@H](NC(=O)OC(C)(C)C)C(=O)N[C@H](Cc1ccccc1)C(=O)N1CCC[C@H]1C(=O)N[C@H](C(=O)NC(CCCNC(=O)OCc1ccccc1)C(=O)NC1=NCCC(C)S1)C(C)C` (stereo partly drawn) [XJB-5-127, Boc-Leu-^DPhe-Pro-Val-Orn(Cbz)-AMT] (Boc-L[dF]PV[ξOrn](Cbz)-X1): the “fmole/10 μM mitochondrial protein” value in data set [13] is recorded as 50.8 fmole/10 μM mitochondrial protein.

With `CC(C)C[C@@H](/C=C/[C@H](Cc1ccccc1)C(=O)N1CCC[C@H]1C(=O)N[C@H](C(=O)N[C@@H](CCCNC(=O)OCc1ccccc1)C(=O)NC1=NCCC(C)S1)C(C)C)NC(=O)OC(C)(C)C` (stereo partly drawn) [XJB-5-133, Boc-leu-ψ[(E)-CH═CH]-^DPhe-Pro-Val-Orn(Cbz)-AMT], in data set [13], the “fmole/10 μM mitochondrial protein” value was 89.8 fmole/10 μM mitochondrial protein.

As for `CC(C)C[C@@H](/C=C/[C@H](Cc1ccccc1)C(=O)NC1=NCCC(C)S1)NC(=O)OC(C)(C)C` (stereo partly drawn) [XJB-5-234, Boc-Leu-[ψ(E)-CH═CH]-^DPhe-AMT], in [13], the “fmole/10 μM mitochondrial protein” value is reported as 1.45 fmole/10 μM mitochondrial protein.

Regarding `C/C(=C\[C@H](Cc1ccccc1)C(=O)N1CCC[C@H]1C(=O)N[C@H](C(=O)NC(CCCNC(=O)OCc1ccccc1)C(=O)NC1=NCCC(C)S1)C(C)C)[C@H](CC(C)C)NC(=O)OC(C)(C)C` (stereo partly drawn) [XJB-5-241, Boc-Leu-ψ[(E)-C(CH3)═CH]-^DPhe-Pro-Val-Orn(Cbz)-AMT], the “fmole/10 μM mitochondrial protein” value in data set [13] is reported as 103.3 fmole/10 μM mitochondrial protein.

The values above are taken from US9890192B2, “Targeted nitroxide agents” (University of Pittsburgh—of the Commonwealth System of …, priority 2008, dated 2018).
